Measurements as given in US12084451B2, “Compositions and methods for reducing tactile dysfunction, anxiety, and social impairment” (President and Fellows of Harvard College, priority 2018, dated 2024).
Read-outs that look alike come from different tables or passages of the source.

Tests used:
Assay type in all cases: cell-based
[1] = biological target: T1, hGABAA α1β3γ2 (Homo sapiens, UniProt P14867+P18507+P28472); assay: hGABAA IonFlux HT PAM Assay, α1β3γ2; conditions: for Mean Maximal Effect (% of Control): normalized to baseline peak current induced by EC20 GABA (1 μM) for 2 seconds
Description: (§1) Ligand-gated ion channels targeted were hGABAA α1β3γ2 and hGABAA α2β3γ2.
(§2) Electrophysiological assays conducted to profile nine (9) compounds for activities on the on channel targets listed above for Positive Allosteric Modulator (PAM) activities using the IonFlux HT electrophysiological platform.
The parameters measured are described in the Data Analysis section.
(§3) All wells included a final DMSO concentration of 0.33% including all control wells.
(§4) All recordings were obtained from a holding potential of −60 mV. The compound addition sequence that was used for all additions was the same for all assays. […] The process was repeated with the next ascending concentration of test compound (FIG. 1).
(§5) All data were first exported to an Excel compatible data file and then analyzed using Graph Pad Prism software.

[2] = biological target: hGABAA α2β3γ2 (Homo sapiens, UniProt P18507+P28472+P47869); assay: hGABAA IonFlux HT PAM Assay, α2β3γ2; conditions: for Mean Maximal Effect (% of Control): normalized to baseline peak current induced by EC20 GABA (0.8 μM) for 2 seconds; for EC50: read-out: Estimated EC50
Description: as §1, §2
The parameters measured are described in the Data Analysis section. […] Open circles represent data that has been excluded from the curve fitting. Where no curve fit was possible, n/c (not calculable) is listed.
as §3, §4, §5

[3] = biological target: T1, hGABAA α1β3γ2; assay: hGABAA α1β3γ2 IonFlux HT Agonist Assay; parameters: activation of hGABAA α1β3γ2 ion channel currents / activation: dose or concentration left out as unconfirmed; conditions: for activation / activation at 0.3 µM / activation at 1 µM / activation at 3 µM / activation at 10 µM / activation at 30 µM / activation at 100 µM / activation at 300 µM: read-out: Normalized Percentage Activation Mean
Protocol: Ligand-gated ion channel targets were hGABAA α2β3γ2 and hGABAA α1β3γ2. Electrophysiological assays conducted to profile two compounds for agonist activities on hGABAA α2β3γ2 and seven compounds for agonist activities on hGABAA α1β3γ2 using the IonFlux HT electrophysiological platform.
The parameters measured are described in the Data Analysis section. […] Note: The test compounds was applied over two (2) ‘experimental patterns’ in increasing concentrations.
The supplied compound was prepared in DMSO to concentrations that were 300× the final assay concentrations. Aliquots were taken out and diluted 300× into external buffer to give the final assay concentration. At wells included a final DMSO concentration of 0.33% including all control wets.
All recordings were obtained from a holding potential of −60 mV. The compound addition sequence that was used for all additions was the same for all assays. […] Each test concentration of compound was applied for 2 seconds followed by 60 seconds wash. The process was repeated with the next ascending concentration of test compound. The test compounds were applied over two (2) ‘experimental patterns’ in increasing concentrations (FIG. 11).
AM data were first exported to an Excel compatible data file and then analyzed using Graph Pad Prism software.

T1 sequence (P14867 28-456): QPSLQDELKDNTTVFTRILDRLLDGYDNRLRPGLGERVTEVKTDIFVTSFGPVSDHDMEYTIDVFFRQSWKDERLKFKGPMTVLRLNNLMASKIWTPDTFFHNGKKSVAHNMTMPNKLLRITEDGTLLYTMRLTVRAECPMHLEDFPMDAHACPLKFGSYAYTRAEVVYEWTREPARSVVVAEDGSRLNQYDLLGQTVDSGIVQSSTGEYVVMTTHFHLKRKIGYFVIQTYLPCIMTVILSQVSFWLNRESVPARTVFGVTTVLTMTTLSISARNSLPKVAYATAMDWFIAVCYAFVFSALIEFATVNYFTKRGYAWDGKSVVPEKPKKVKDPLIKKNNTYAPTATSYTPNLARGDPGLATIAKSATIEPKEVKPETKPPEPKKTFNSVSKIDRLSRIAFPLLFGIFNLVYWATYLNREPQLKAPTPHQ
T1 sequence (P28472 26-473): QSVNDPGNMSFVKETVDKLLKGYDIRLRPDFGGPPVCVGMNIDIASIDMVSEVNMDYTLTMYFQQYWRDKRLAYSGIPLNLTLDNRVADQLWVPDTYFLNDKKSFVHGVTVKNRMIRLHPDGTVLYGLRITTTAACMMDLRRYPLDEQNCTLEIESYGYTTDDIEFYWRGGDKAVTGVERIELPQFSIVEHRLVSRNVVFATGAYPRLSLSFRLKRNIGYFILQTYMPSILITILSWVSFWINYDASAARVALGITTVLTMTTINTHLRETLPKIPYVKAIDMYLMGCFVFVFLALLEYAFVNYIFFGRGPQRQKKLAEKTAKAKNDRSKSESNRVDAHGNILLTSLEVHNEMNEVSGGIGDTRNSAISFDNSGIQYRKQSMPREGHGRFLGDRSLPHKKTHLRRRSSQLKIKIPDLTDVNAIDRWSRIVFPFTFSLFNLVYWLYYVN
T1 sequence (P18507 40-475): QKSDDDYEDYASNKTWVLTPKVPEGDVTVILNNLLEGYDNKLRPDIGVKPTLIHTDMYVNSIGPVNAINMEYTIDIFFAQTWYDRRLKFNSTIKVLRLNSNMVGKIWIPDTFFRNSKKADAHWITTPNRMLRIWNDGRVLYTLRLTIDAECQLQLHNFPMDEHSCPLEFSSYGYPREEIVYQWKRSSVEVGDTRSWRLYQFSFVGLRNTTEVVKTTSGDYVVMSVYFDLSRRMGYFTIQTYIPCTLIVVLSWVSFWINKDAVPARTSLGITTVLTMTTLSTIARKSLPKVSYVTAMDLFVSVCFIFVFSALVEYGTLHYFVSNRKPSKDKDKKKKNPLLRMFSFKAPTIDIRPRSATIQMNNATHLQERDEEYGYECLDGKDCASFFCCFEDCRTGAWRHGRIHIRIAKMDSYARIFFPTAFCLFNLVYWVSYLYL
Chain of hGABAA α2β3γ2 (P47869 29-451): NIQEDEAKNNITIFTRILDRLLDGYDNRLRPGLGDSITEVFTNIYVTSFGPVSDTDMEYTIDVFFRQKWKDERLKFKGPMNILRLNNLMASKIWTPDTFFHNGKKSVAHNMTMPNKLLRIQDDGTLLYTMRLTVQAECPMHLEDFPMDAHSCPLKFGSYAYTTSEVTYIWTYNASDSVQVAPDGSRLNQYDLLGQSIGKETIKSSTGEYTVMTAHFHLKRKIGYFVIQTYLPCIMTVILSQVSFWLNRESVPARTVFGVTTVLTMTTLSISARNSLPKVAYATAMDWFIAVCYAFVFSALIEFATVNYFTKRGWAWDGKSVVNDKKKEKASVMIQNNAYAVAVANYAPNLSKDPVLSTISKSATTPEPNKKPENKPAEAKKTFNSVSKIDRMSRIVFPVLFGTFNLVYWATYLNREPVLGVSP
Chain of hGABAA α2β3γ2 (P28472 26-473): as the sequence (P28472 26-473) above
Chain of hGABAA α2β3γ2 (P18507 40-475): as the sequence (P18507 40-475) above

Row | SMILES | Mean Maximal Effect (% of Control) [1] | EC50 ([1]; read-out: Estimated EC50) | Mean Maximal Effect (% of Control) [2] | EC50 [2] | activation of hGABAA α1β3γ2 ion channel currents [3] | EC50 ([3]; agonist activation of channel currents, read-out: Estimated EC50) | activation [3] | activation at 0.3 µM [3] | activation at 1 µM [3] | activation at 3 µM [3] | activation at 10 µM [3] | activation at 30 µM [3] | activation at 100 µM [3] | activation at 300 µM [3] | EC50 ([1]; Estimated EC50, positive modulation of EC20 GABA current) | EC50 ([2]; positive modulation of EC20 GABA current) | EC50 [3]
1 | CCCN(CCNC)C(=O)Cc1c(-c2ccc(C)cc2)nc2ccc(C)cn12 [Compound 2] | 354 % of Control | 0.446 µM | 248 % of Control | 2 µM | did not activate | > 1000 µM | 3.48% | 2.17% | 1.99% | 2.79% | 5.37% | 5.93% | 7.1% | 3.63% |  |  | 
2 | CCCN(CCNC)C(=O)Cc1c(-c2ccc(Cl)cc2)nc2ccc(Cl)cn12 [Compound 3] | 331 % of Control |  | 240 % of Control |  | did not activate |  | 3.53% | 1.99% | 1.9% | 2.32% | 6.3% | 2.98% | 3.63% | 8.78% | 0.081 µM | 1.1 µM | > 1000 µM
